How the values were obtained:
S. aureus DSM 20231 [1] = test: fitness (endpoint OD595 vs no drug) (fraction); higher = more growth
Method in brief: (§1)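 Each well of a 384-well plate received 30 µl of culture at OD595 0.01, or 55 µl for S. pneumoniae. TSB, LB Lennox or CY served as media at 37 °C. OD595 was taken every 30 min for 14 h and corrected by subtracting the first reading. Fitness is the optical density at stationary-phase entry divided by the robust mean of no-drug controls, capped at 1.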

S. aureus Newman [2] = test: as above
Method in brief: as §1

B. subtilis 168 [3] = test: Bliss interaction score (quartile over a dose matrix) (fitness difference); higher = more antagonism (negative = synergy)
Method in brief: (§2)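 The Bliss score takes observed fitness and subtracts the expected fitness, calculated as a product of single-drug fitness values. Those single-drug values were inferred from the combination data. Fitness is OD595 at entry into stationary phase divided by the plate's robust no-drug mean, capped at 1, and the score is summarised by quartiles across technical, biological and donor/recipient replicates.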

S. aureus DSM 20231 [4] = test: as above
Method in brief: as §2

S. aureus Newman [5] = test: as above
Method in brief: as §2

S. pneumoniae D39V [6] = test: as above
Method in brief: as §2

B. subtilis 168 [7] = test: fitness (endpoint OD595 vs no drug) (fraction); higher = more growth
Method in brief: as §1

S. pneumoniae D39V [8] = test: as above
Method in brief: as §1
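Throughout, for Bliss interaction score (quartile over a dose matrix): first quartile when negative (synergy) and third quartile when positive (antagonism).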

O=C(N[C@H](CO)[C@H](O)c1ccc([N+](=O)[O-])cc1)C(Cl)Cl [Chloramphenicol] + Cn1nnc(-c2ccc(-c3ccc(N4C[C@H](CO)OC4=O)cc3F)cn2)n1 [Tedizolid]
fitness
Settings | partner 0.0625 µg/mL | partner 0.125 µg/mL | partner 0.25 µg/mL
S. aureus DSM 20231 [1], first compound 0.75 µg/mL | 0.584 | 0.538 | 0.189
S. aureus DSM 20231 [1], first compound 1.5 µg/mL | 0.412 | 0.285 | 0.168
S. aureus DSM 20231 [1], first compound 3 µg/mL | 0.0827 | 0.07 | 0.0466
S. aureus Newman [2], first compound 3 µg/mL | – | 0.095 | 0.0603

Settings | Bliss interaction score
B. subtilis 168 [3] | -0.101
S. aureus DSM 20231 [4] | -0.157
S. aureus Newman [5] | -0.179
S. pneumoniae D39V [6] | -0.068

CCC[C@@H]1C[C@@H](C(=O)N[C@@H]([C@H]2O[C@H](SC)[C@H](O)[C@@H](O)[C@H]2O)[C@H](C)Cl)N(C)C1 [Clindamycin] + CCCCCCCCCC(=O)N[C@@H]1[C@H]([C@@H]([C@H](O[C@H]1OC2=C3C=C4C=C2OC5=C(C=C(C=C5)[C@H]([C@H]6C(=O)N[C@@H](C7=C(C(=CC(=C7)O)OC8[C@H]([C@H]([C@@H]([C@H](O8)CO)O)O)O)C9=C(C=CC(=C9)[C@H](C(=O)N6)NC(=O)[C@@H]4NC(=O)[C@@H]1C2=CC(=CC(=C2)OC2=C(C=CC(=C2)[C@H](C(=O)N[C@H](CC2=CC(=C(O3)C=C2)Cl)C(=O)N1)N)O)O)O)C(=O)O)O[C@H]1[C@@H]([C@H]([C@@H]([C@H](O1)CO)O)O)NC(=O)C)Cl)CO)O)O [Teicoplanin]
fitness, main component drawn
Settings | partner 0.1562 µg/mL | partner 0.3125 µg/mL | partner 0.625 µg/mL
S. aureus DSM 20231 [1], first compound 0.125 µg/mL | 0.0489 | 0.0449 | 0.0526
S. aureus Newman [2], first compound 0.0312 µg/mL | 0.679 | 0.864 | 0.854
S. aureus Newman [2], first compound 0.0625 µg/mL | 0.448 | 0.431 | 0.483
S. aureus Newman [2], first compound 0.125 µg/mL | 0.0629 | 0.0636 | 0.0614

fitness, S. aureus Newman [2], one replicate, main component drawn
Settings | first compound 0.0312 µg/mL | first compound 0.0625 µg/mL | first compound 0.125 µg/mL
partner 0.62 µg/mL | 0.86 | 0.74 | 0.358
partner 1.24 µg/mL | 0.938 | 0.839 | 0.307
partner 2.48 µg/mL | 0.755 | 0.726 | 0.154

main component drawn
Settings | Bliss interaction score
B. subtilis 168 [3] | -0.117
S. aureus DSM 20231 [4] | 0.0389
S. aureus Newman [5] | 0.137
S. pneumoniae D39V [6] | -0.0604

CCC[C@@H]1C[C@@H](C(=O)N[C@@H]([C@H]2O[C@H](SC)[C@H](O)[C@@H](O)[C@H]2O)[C@@H](C)O)N(C)C1 [Lincomycin] + Cc1onc(-c2ccccc2)c1C(=O)N[C@@H]1C(=O)N2[C@@H]1SC(C)(C)[C@@H]2C(=O)O [Oxacillin]
fitness
Settings | first compound 0.1 µg/mL | first compound 0.2 µg/mL | first compound 0.215 µg/mL | first compound 0.4 µg/mL | first compound 0.43 µg/mL | first compound 0.8 µg/mL | first compound 0.86 µg/mL
B. subtilis 168 [7], partner 0.002 µg/mL | 0.911 | 0.939 | – | 0.913 | – | – | –
B. subtilis 168 [7], partner 0.004 µg/mL | 0.881 | 0.923 | – | 0.926 | – | – | –
B. subtilis 168 [7], partner 0.008 µg/mL | 0.891 | 0.877 | – | 0.83 | – | – | –
S. aureus DSM 20231 [1], partner 0.0156 µg/mL | 0.785 | 0.78 | – | 0.291 | – | – | –
S. aureus DSM 20231 [1], partner 0.0312 µg/mL | 0.655 | 0.682 | – | 0.259 | – | – | –
S. aureus DSM 20231 [1], partner 0.0625 µg/mL | 0.491 | 0.515 | – | 0.173 | – | – | –
S. pneumoniae D39V [8], partner 0.01 µg/mL | – | 0.765 | 0.927 | 0.63 | 0.762 | – | 0.507
S. pneumoniae D39V [8], partner 0.02 µg/mL | – | 0.764 | 0.882 | 0.588 | 0.778 | – | 0.483
S. pneumoniae D39V [8], partner 0.04 µg/mL | – | 0.509 | 0.787 | 0.403 | 0.716 | 0.139 | 0.404

fitness, B. subtilis 168 [7], one replicate
Settings | partner 0.0078 µg/mL | partner 0.0155 µg/mL | partner 0.031 µg/mL | partner 0.075 µg/mL | partner 0.15 µg/mL | partner 0.3 µg/mL
first compound 0.1 µg/mL | ≥ 1 | ≥ 1 | ≥ 1 | – | – | –
first compound 0.2 µg/mL | ≥ 1 | ≥ 1 | 0.889 | – | – | –
first compound 0.4 µg/mL | ≥ 1 | ≥ 1 | 0.934 | 0.183 | 0.0398 | 0.0489
first compound 0.8 µg/mL | – | – | – | 0.403 | 0.0361 | 0.0601
first compound 1.6 µg/mL | – | – | – | 0.261 | 0.0594 | 0.0563

Settings | Bliss interaction score
B. subtilis 168 [3] | -0.0676
S. aureus DSM 20231 [4] | 0.119
S. aureus Newman [5] | 0.137
S. pneumoniae D39V [6] | 0.189
